Data taken from patent publication US10022374B2, “Certain protein kinase inhibitors” (Shanghai Fochon Pharmaceutical Co., Ltd., priority 2013, dated 2018).
Where two headings read alike, the source gives them in different places.

Columns and labels:
[1] = tested on: A-375 cells; experiment: Inhibition of cell proliferation (MTS), A-375 cells; type: cell-based; conditions: Homo sapiens, A-375, 72 h
Protocol: (§1) MTS testing kit was purchased from Promega. The DMEM, RPMI-1640 and Fetal bovine serum were purchased from Gibco. Dimethyl sulfoxide (DMSO) was purchased from Sigma.
(§2) To investigate whether a compound is able to inhibit the activity of MEK in cells, a mechanism-based assay using A-375 and HT-29 cell was developed. In this assay, inhibition of MEK was detected by the inhibition of A-375 and HT-29 cells proliferation. A-375 and HT-29 cells were cultured in culture flasks to 40-80% confluence respectively in DMEM and RPMI-1640 plus 10% fetal bovine serum. Cells were collected and plated onto 96-well plates at desired cell density (A-375: 3000 cells/well; HT-29: 5000 cells/well). Plates were incubated overnight at 37° C., with 5% CO2 to adhere. Compounds were added to the plates. The final compound concentrations were […], 12.35, 4.12, 1.37, 0.46 and 0.15 nM, respectively. Place plates at 37° C., with 5% CO2 for 72 h. 10 μl MTS were added to each well and incubate the plates for exactly 2 hours. Absorbance was measured at 490 nm. […] was calculated using GraphPad Prism 5.0.

[2] = tested on: HT-29 cells; experiment: Inhibition of cell proliferation (MTS), HT-29 cells; type: cell-based; conditions: Homo sapiens, HT-29, 72 h
Protocol: as §1, §2

[3] = A-375 cells, 3000 cells/well, 72 h, MTS, absorbance 490 nm, read-out: A375 IC50
[4] = HT-29 cells, 5000 cells/well, 72 h, MTS, absorbance 490 nm, read-out: HT29 IC50

Row | Structure (SMILES) | IC50 [1, 3] | IC50 [2, 4] | IC50 ([1]; read-out: A375 IC50 (nM)) | IC50 ([2]; read-out: HT29 IC50 (nM))
1 | Cn1c(=O)c(F)c(Nc2ccc(I)cc2F)c2c(=O)n(CC(O)CO)nc(-c3cccc(NC(=O)C4CC4)c3)c21 (stereo not drawn) [Example 42, N-(3-(6-(2,3-dihydroxypropyl)-3-fluoro-4-(2-fluoro-4-iodophenylamino)-1-methyl-2,5-dioxo-1,2,5,6-tetrahydropyrido[2,3-d]pyridazin-8-yl)phenyl)cyclopropanecarboxamide] | 180 nM | 112 nM |  | 
2 | CCC(=O)Nc1cccc(-c2nn(CC(O)CO)c(=O)c3c(Nc4ccc(I)cc4F)c(F)c(=O)n(C)c23)c1 (stereo not drawn) [Example 41, N-(3-(6-(2,3-dihydroxypropyl)-3-fluoro-4-(2-fluoro-4-iodophenylamino)-1-methyl-2,5-dioxo-1,2,5,6-tetrahydropyrido[2,3-d]pyridazin-8-yl)phenyl)propionamide] | 399 nM | 315 nM |  | 
3 | CC(C)S(=O)(=O)N(C)c1cccc(-c2nn(C)c(=O)c3c(Nc4ccc(I)cc4F)c(F)c(=O)n(C)c23)c1 [Example 51, N-(3-(3-fluoro-4-((2-fluoro-4-iodophenyl)amino)-1,6-dimethyl-2,5-dioxo-1,2,5,6-tetrahydropyrido[2,3-d]pyridazin-8-yl)phenyl)-N-methylpropane-2-sulfonamide] |  |  | 2.2 nM | 2 nM
4 | CCS(=O)(=O)Nc1cccc(-c2nn(CC(O)CO)c(=O)c3c(Nc4ccc(I)cc4F)c(F)c(=O)n(C)c23)c1 (stereo not drawn) [Example 44, N-(3-(6-(2,3-dihydroxypropyl)-3-fluoro-4-(2-fluoro-4-iodophenylamino)-1-methyl-2,5-dioxo-1,2,5,6-tetrahydropyrido[2,3-d]pyridazin-8-yl)phenyl)ethanesulfonamide] | 71.3 nM | 57.7 nM |  | 
5 | CC(C)n1nc(-c2cccc(NS(C)(=O)=O)c2)c2c(c(Nc3ccc(I)cc3F)c(F)c(=O)n2C)c1=O [Example 13, N-(3-(3-fluoro-4-(2-fluoro-4-iodophenylamino)-6-isopropyl-1-methyl-2,5-dioxo-1,2,5,6-tetrahydropyrido[2,3-d]pyridazin-8-yl)phenyl)methanesulfonamide] | 26.2 nM | 87.4 nM |  | 
6 | CC(C)n1nc(-c2cccc(NC(=O)C3CC3)c2)c2c(c(Nc3ccc(I)cc3F)c(F)c(=O)n2C)c1=O [Example 12, N-(3-(3-fluoro-4-(2-fluoro-4-iodophenylamino)-6-isopropyl-1-methyl-2,5-dioxo-1,2,5,6-tetrahydropyrido[2,3-d]pyridazin-8-yl)phenyl)cyclopropanecarboxamide] | 199 nM | 192 nM |  | 
7 | CC(=O)Nc1cccc(-c2nn(C3CC3)c(=O)c3c(Nc4ccc(I)cc4F)c(F)c(=O)n(C)c23)c1 [Example 1, N-(3-(6-cyclopropyl-3-fluoro-4-(2-fluoro-4-iodophenylamino)-1-methyl-2,5-dioxo-1,2,5,6-tetrahydropyrido[2,3-d]pyridazin-8-yl)phenyl)acetamide] |  |  | 1.2 nM | 2.4 nM
8 | C=CCn1nc(-c2cccc(NC(=O)CC)c2)c2c(c(Nc3ccc(I)cc3F)c(F)c(=O)n2C)c1=O [Example 29, N-(3-(6-allyl-3-fluoro-4-(2-fluoro-4-iodophenylamino)-1-methyl-2,5-dioxo-1,2,5,6-tetrahydropyrido[2,3-d]pyridazin-8-yl)phenyl)propionamide] | 51.2 nM | 106 nM |  | 
9 | C=CCn1nc(-c2cccc(NC(=O)C(C)C)c2)c2c(c(Nc3ccc(I)cc3F)c(F)c(=O)n2C)c1=O [Example 35, N-(3-(6-allyl-3-fluoro-4-(2-fluoro-4-iodophenylamino)-1-methyl-2,5-dioxo-1,2,5,6-tetrahydropyrido[2,3-d]pyridazin-8-yl)phenyl)isobutyramide] | 26.3 nM | 22.6 nM |  | 
10 | Cn1nc(-c2cccc(N3CCCC3=O)c2)c2c(c(Nc3ccc(I)cc3F)c(F)c(=O)n2C)c1=O [Example 54, 3-fluoro-4-((2-fluoro-4-iodophenyl)amino)-1,6-dimethyl-8-(3-(2-oxopyrrolidin-1-yl)phenyl)pyrido[2,3-d]pyridazine-2,5(1H,6H)-dione] |  |  | 4.7 nM | 7.9 nM

Continued, in another order:

Row | IC50 [1, 3] | IC50 [2, 4] | Structure (SMILES) | IC50 ([1]; read-out: A375 IC50 (nM)) | IC50 ([2]; read-out: HT29 IC50 (nM))
11 | 3.6 nM | 4.6 nM | Cn1c(=O)c(F)c(Nc2ccc(I)cc2F)c2c(=O)n(CC(O)CO)nc(-c3cccc(NS(C)(=O)=O)c3)c21 (stereo not drawn) [Example 43, N-(3-(6-(2,3-dihydroxypropyl)-3-fluoro-4-(2-fluoro-4-iodophenylamino)-1-methyl-2,5-dioxo-1,2,5,6-tetrahydropyrido[2,3-d]pyridazin-8-yl)phenyl)methanesulfonamide] |  | 
12 | < 1 nM | < 1 nM | CCn1nc(-c2cccc(NS(=O)(=O)C3CC3)c2)c2c(c(Nc3ccc(I)cc3F)c(F)c(=O)n2C)c1=O [Example 27, N-(3-(6-ethyl-3-fluoro-4-(2-fluoro-4-iodophenylamino)-1-methyl-2,5-dioxo-1,2,5,6-tetrahydropyrido[2,3-d]pyridazin-8-yl)phenyl)cyclopropanesulfonamide] |  | 
13 | 20.8 nM |  | C=CCn1nc(-c2cccc(NC(C)=O)c2)c2c(c(Nc3ccc(I)cc3F)c(Cl)c(=O)n2C)c1=O [Example 38, N-(3-(6-allyl-3-chloro-4-(2-fluoro-4-iodophenylamino)-1-methyl-2,5-dioxo-1,2,5,6-tetrahydropyrido[2,3-d]pyridazin-8-yl)phenyl)acetamide] |  | 
14 | 19.6 nM | 6.4 nM | CCS(=O)(=O)Nc1cccc(-c2nn(C(C)C)c(=O)c3c(Nc4ccc(I)cc4F)c(F)c(=O)n(C)c23)c1 [Example 14, N-(3-(3-fluoro-4-(2-fluoro-4-iodophenylamino)-6-isopropyl-1-methyl-2,5-dioxo-1,2,5,6-tetrahydropyrido[2,3-d]pyridazin-8-yl)phenyl)ethanesulfonamide] |  | 
15 | 3.4 nM | 13.2 nM | CC(C)S(=O)(=O)N(C)c1cccc(-c2nn(C3CC3)c(=O)c3c(Nc4ccc(I)cc4F)c(F)c(=O)n(C)c23)c1 [Example 48, N-(3-(6-cyclopropyl-3-fluoro-4-((2-fluoro-4-iodophenyl)amino)-1-methyl-2,5-dioxo-1,2,5,6-tetrahydropyrido[2,3-d]pyridazin-8-yl)phenyl)-N-methylpropane-2-sulfonamide] |  | 
16 | 1.5 nM | 5.3 nM | CN(c1cccc(-c2nn(C)c(=O)c3c(Nc4ccc(I)cc4F)c(F)c(=O)n(C)c23)c1)S(C)(=O)=O [Example 50, N-(3-(3-fluoro-4-((2-fluoro-4-iodophenyl)amino)-1,6-dimethyl-2,5-dioxo-1,2,5,6-tetrahydropyrido[2,3-d]pyridazin-8-yl)phenyl)-N-methylmethanesulfonamide] |  | 
17 | 19.4 nM | 31.5 nM | CC(C)n1nc(-c2cccc(NS(=O)(=O)C3CC3)c2)c2c(c(Nc3ccc(I)cc3F)c(F)c(=O)n2C)c1=O [Example 16, N-(3-(3-fluoro-4-(2-fluoro-4-iodophenylamino)-6-isopropyl-1-methyl-2,5-dioxo-1,2,5,6-tetrahydropyrido[2,3-d]pyridazin-8-yl)phenyl)cyclopropanesulfonamide] |  | 
18 | 9.8 nM | 23.5 nM | CC(C)S(=O)(=O)Nc1cccc(-c2nn(CC(O)CO)c(=O)c3c(Nc4ccc(I)cc4F)c(F)c(=O)n(C)c23)c1 (stereo not drawn) [Example 45, N-(3-(6-(2,3-dihydroxypropyl)-3-fluoro-4-(2-fluoro-4-iodophenylamino)-1-methyl-2,5-dioxo-1,2,5,6-tetrahydropyrido[2,3-d]pyridazin-8-yl)phenyl)propane-2-sulfonamide] |  | 
19 | < 1 nM | < 1 nM | CCn1nc(-c2cccc(NS(C)(=O)=O)c2)c2c(c(Nc3ccc(I)cc3F)c(F)c(=O)n2C)c1=O [Example 25, N-(3-(6-ethyl-3-fluoro-4-(2-fluoro-4-iodophenylamino)-1-methyl-2,5-dioxo-1,2,5,6-tetrahydropyrido[2,3-d]pyridazin-8-yl)phenyl)methanesulfonamide] |  | 
20 | 5.4 nM | 5.4 nM | C=CCn1nc(-c2cccc(NS(=O)(=O)C3CC3)c2)c2c(c(Nc3ccc(I)cc3F)c(F)c(=O)n2C)c1=O [Example 8, N-(3-(6-allyl-3-fluoro-4-(2-fluoro-4-iodophenylamino)-1-methyl-2,5-dioxo-1,2,5,6-tetrahydropyrido[2,3-d]pyridazin-8-yl)phenyl)cyclopropanesulfonamide] |  | 
21 | < 1 nM | < 1 nM | Cn1nc(-c2cccc(NS(=O)(=O)C3CC3)c2)c2c(c(Nc3ccc(I)cc3F)c(F)c(=O)n2C)c1=O [Example 23, N-(3-(3-fluoro-4-(2-fluoro-4-iodophenylamino)-1,6-dimethyl-2,5-dioxo-1,2,5,6-tetrahydropyrido[2,3-d]pyridazin-8-yl)phenyl)cyclopropanesulfonamide] |  | 
22 | 22.8 nM |  | CC(=O)Nc1cccc(-c2nn(CC(O)CO)c(=O)c3c(Nc4ccc(I)cc4F)c(Cl)c(=O)n(C)c23)c1 (stereo not drawn) [Example 39, N-(3-(3-chloro-6-(2,3-dihydroxypropyl)-4-((2-fluoro-4-iodophenyl)amino)-1-methyl-2,5-dioxo-1,2,5,6-tetrahydropyrido[2,3-d]pyridazin-8-yl)phenyl)acetamide] |  | 
